Experiments:
Test in all cases: relative viability (nuclei count vs DMSO), 5 days (fraction); higher = more cells survive
[1] = compound: C1/C(=C\C2=CC=CS2)/C(=O)/C(=C/C3=CC=CS3)/C1 + Cc1nc(Nc2ncc(C(=O)Nc3c(C)cccc3Cl)s2)cc(N2CCN(CCO)CC2)n1 [Dasatinib] (partner 0.075 µM)
Outline: (§1)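 Lung cancer cell lines, seeded in 1536-well plates, were treated the following day by pin tool with a single drug or with five library-drug doses (not always all listed) in √10 steps on top of a fixed anchor-drug dose. Cells were fixed and nuclei stained in one step after 5 days, and nuclei were counted. Relative viability is the nuclei count for treated wells divided by that for vehicle wells, reported as medians of duplicate plates.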

TPCA-1 + Palbociclib = compound: C1=CC(=CC=C1C2=CC(=C(S2)NC(=O)N)C(=O)N)F [TPCA-1] + CC(=O)c1c(C)c2cnc(Nc3ccc(N4CCNCC4)cn3)nc2n(C2CCCC2)c1=O [Palbociclib] (partner 0.5 µM)
Outline: as §1

TPCA-1 + Navitoclax = compound: C1=CC(=CC=C1C2=CC(=C(S2)NC(=O)N)C(=O)N)F [TPCA-1] + CC1(C)CCC(c2ccc(Cl)cc2)=C(CN2CCN(c3ccc(C(=O)NS(=O)(=O)c4ccc(N[C@H](CCN5CCOCC5)CSc5ccccc5)c(S(=O)(=O)C(F)(F)F)c4)cc3)CC2)C1 [Navitoclax] (partner 0.5 µM)
Outline: as §1

Lestaurtinib + AZD7762 = compound: C[C@]12O[C@H](C[C@]1(O)CO)n1c3ccccc3c3c4c(c5c6ccccc6n2c5c31)CNC4=O [Lestaurtinib] + NC(=O)Nc1cc(-c2cccc(F)c2)sc1C(=O)N[C@H]1CCCNC1 [AZD7762] (partner 0.2 µM)
Outline: as §1

| Cell Line | relative viability ([1]; first compound 0.2 µM) | relative viability ([1]; first compound 0.6325 µM) | relative viability ([1]; first compound 2 µM) | relative viability ([1]; first compound 6.325 µM) | relative viability ([1]; first compound 20 µM) | relative viability (TPCA-1 + Palbociclib; first compound 0.1265 µM) | relative viability (TPCA-1 + Palbociclib; first compound 0.4 µM) | relative viability (TPCA-1 + Palbociclib; first compound 1.265 µM) | relative viability (TPCA-1 + Palbociclib; first compound 4 µM) | relative viability (TPCA-1 + Navitoclax; first compound 0.04 µM) | relative viability (TPCA-1 + Navitoclax; first compound 0.1265 µM) | relative viability (TPCA-1 + Navitoclax; first compound 0.4 µM) | relative viability (TPCA-1 + Navitoclax; first compound 1.265 µM) | relative viability (TPCA-1 + Navitoclax; first compound 4 µM) | relative viability (Lestaurtinib + AZD7762; first compound 0.005 µM) | relative viability (Lestaurtinib + AZD7762; first compound 0.01581 µM) | relative viability (Lestaurtinib + AZD7762; first compound 0.05 µM) | relative viability (Lestaurtinib + AZD7762; first compound 0.1581 µM) | relative viability (Lestaurtinib + AZD7762; first compound 0.5 µM) | relative viability (TPCA-1 + Palbociclib; first compound 0.04 µM) |
| --- | --- | --- | --- | --- | --- | --- | --- | --- | --- | --- | --- | --- | --- | --- | --- | --- | --- | --- | --- | --- |
| HCC-366 | 0.638 | 0.592 | 0.751 | 0.608 | 0.474 | 0.346 | 0.397 | 0.328 | 0.192 | 1.01 | 0.942 | 1.14 | 0.952 | 1 | 0.315 | 0.305 | 0.339 | 0.447 | 0.556 |  |
| HCC-827 | 0.405 | 0.366 | 0.31 | 0.265 | 0.31 | 0.407 | 0.521 | 0.413 | 0.278 | 0.996 | 1.04 | 1.04 | 1 | 0.683 | 0.198 | 0.196 | 0.219 | 0.189 | 0.18 | 0.487 |
| IA-LM |  |  |  |  |  |  |  |  |  | 0.855 | 0.595 | 0.72 | 0.617 | 0.678 |  |  |  |  |  |  |
| LCLC-103H | 0.402 | 0.466 | 0.572 | 0.481 | 0.444 | 0.519 | 0.465 | 0.473 | 0.494 |  |  |  |  |  | 0.924 | 0.785 | 0.635 | 0.633 | 0.452 | 0.52 |
| NCI-H358 | 0.155 | 0.178 | 0.18 |  | 0.164 | 0.157 | 0.137 | 0.109 | 0.108 |  |  |  |  |  | 0.485 | 0.413 | 0.432 | 0.298 | 0.253 | 0.152 |
| NCI-H520 | 0.218 | 0.212 | 0.165 | 0.241 | 0.213 | 0.162 | 0.164 | 0.282 | 0.232 | 1.17 | 0.96 | 1.1 | 0.977 | 1.08 |  |  |  |  |  | 0.281 |
| NCI-H522 | 0.901 | 0.854 | 1.01 | 0.834 | 0.919 | 0.978 | 1.06 | 1.04 | 0.953 |  |  |  |  |  | 0.944 | 0.778 | 0.842 | 0.744 | 0.479 | 1.15 |
| NCI-H596 | 0.577 | 0.677 | 0.598 | 0.628 | 0.586 |  |  |  |  | 0.88 | 0.932 | 1.07 | 0.996 | 1.07 | 1.13 | 0.95 | 0.893 | 1.13 | 1.05 |  |
| NCI-H650 | 0.462 | 0.416 | 0.569 | 0.446 | 0.444 | 0.323 | 0.343 | 0.266 | 0.279 |  |  |  |  |  | 0.939 | 1.07 | 0.706 | 0.687 | 0.302 | 0.347 |
| NCI-H661 | 0.998 | 0.801 | 0.811 | 0.833 | 0.85 | 0.397 | 0.411 | 0.399 | 0.378 |  |  |  |  |  |  |  |  |  |  | 0.413 |
| NCI-H1299 |  |  |  |  |  |  |  |  |  | 1.08 | 1.02 | 1.02 | 1.04 | 1.07 |  |  |  |  |  |  |
| NCI-H1563 | 0.452 | 0.462 | 0.504 | 0.453 | 0.465 |  |  |  |  |  |  |  |  |  |  |  |  |  |  |  |
| NCI-H1623 | 0.53 | 0.561 | 0.52 | 0.52 | 0.53 |  |  |  |  |  |  |  |  |  |  |  |  |  |  |  |
| NCI-H1648 |  |  |  |  |  | 0.245 | 0.262 | 0.254 | 0.199 |  |  |  |  |  |  | 1.47 |  | 0.977 | 0.644 | 0.254 |
| NCI-H1650 | 0.313 | 0.3 | 0.341 | 0.306 | 0.316 | 0.309 | 0.408 | 0.474 | 0.354 | 1.3 | 1.05 | 1.27 | 1.09 | 1.1 |  |  |  |  |  | 0.323 |
| NCI-H1703 |  |  |  |  |  |  |  |  |  | 1.18 | 0.955 | 1.12 | 0.774 | 0.807 | 0.122 | 0.115 | 0.107 | 0.108 | 0.0966 |  |
| NCI-H2009 | 0.282 | 0.296 | 0.306 | 0.269 | 0.311 | 0.204 | 0.25 | 0.174 | 0.19 | 1.2 | 1.18 | 1.08 | 1.19 | 1.12 |  |  |  |  |  | 0.254 |
| NCI-H2023 | 0.597 | 0.581 | 0.673 | 0.513 | 0.502 | 0.394 | 0.444 | 0.37 | 0.165 | 1.14 | 0.98 | 1.04 | 0.938 | 0.912 |  |  |  |  |  | 0.366 |
| NCI-H2228 | 0.638 | 0.479 | 0.535 | 0.408 | 0.531 | 0.593 | 0.801 | 0.543 | 0.308 | 0.758 | 0.68 | 1.18 | 0.656 | 0.595 |  |  |  |  |  | 0.865 |
| NCI-H2342 | 0.314 | 0.347 | 0.352 | 0.306 | 0.326 | 0.546 | 0.535 | 0.534 | 0.547 |  |  |  |  |  | 0.473 | 0.51 | 0.469 | 0.583 | 0.407 | 0.461 |
| SK-LU-1 | 0.182 | 0.203 | 0.189 | 0.164 | 0.224 | 0.367 | 0.368 | 0.347 | 0.235 | 0.962 | 0.785 | 0.789 | 0.7 | 0.566 |  |  |  |  |  | 0.363 |
| SK-MES-1 | 0.337 | 0.421 | 0.366 | 0.391 | 0.425 | 0.333 | 0.325 | 0.319 | 0.327 | 1.3 | 1.07 | 1.22 | 1.16 | 0.797 |  |  |  |  |  | 0.346 |
| SW 900 | 0.64 | 0.773 | 0.769 | 0.574 | 0.671 |  | 0.676 | 0.566 | 0.537 |  |  |  |  |  | 0.632 | 0.561 | 0.555 | 0.702 | 0.614 |  |
| SW 1573 | 0.564 | 0.516 | 0.475 | 0.429 | 0.449 | 0.396 | 0.396 | 0.395 | 0.407 | 1.14 | 0.866 | 0.916 | 0.962 | 0.948 |  |  |  |  |  | 0.429 |

Source: the supplement of paper PMC10307832
